Target: PI3Kδ (PI3Kd) (Homo sapiens (Human), UniProt O00329)
Assay: PI3K HTRF enzymatic inhibition assay (cell-free), delta isoform
Details: read-out: IC50 PI3Kd HTRF; recombinant PI3K delta, [ATP] 15 μM, [PIP2] 2 μM, 30 min preincubation
Description: Compounds were screened for their ability to inhibit PI3Kα (PI3Ka), PI3Kβ (PI3Kb), PI3Kδ (PI3Kd) and PI3Kγ (PI3Kg) using a cell-free based PI3K HTRF™ assay (Millipore, ref. #33-017).
PI-3 Kinase HTRF kit (ref. #33-037) and the different PI3K recombinant isoforms (ref. #14-602, ref. #14-603, ref. #14-604, ref. #15-558 for Alpha, Beta, Delta and Gamma respectively) were purchased at Millipore (expressed in insect cells). ATP was purchased at Sigma Aldrich (ref. #A7699).
The compounds were pre-incubated with the enzyme for 30 min before starting of the catalytic reaction. [PIP2] was used at its Km. […] Time of assay and [Enzyme] were optimized to work in the linear range. Stop and Detection mixtures were used as specified in the Millipore PI-3 Kinase kit.
Reaction time and enzyme concentration in the assay will depend of each batch.
All experiments were analysed using Activity Base software from IDBS and the four-parameter log equation.

Chain of PI3Kδ (PI3Kd) (O00329 whole entry, canonical isoform): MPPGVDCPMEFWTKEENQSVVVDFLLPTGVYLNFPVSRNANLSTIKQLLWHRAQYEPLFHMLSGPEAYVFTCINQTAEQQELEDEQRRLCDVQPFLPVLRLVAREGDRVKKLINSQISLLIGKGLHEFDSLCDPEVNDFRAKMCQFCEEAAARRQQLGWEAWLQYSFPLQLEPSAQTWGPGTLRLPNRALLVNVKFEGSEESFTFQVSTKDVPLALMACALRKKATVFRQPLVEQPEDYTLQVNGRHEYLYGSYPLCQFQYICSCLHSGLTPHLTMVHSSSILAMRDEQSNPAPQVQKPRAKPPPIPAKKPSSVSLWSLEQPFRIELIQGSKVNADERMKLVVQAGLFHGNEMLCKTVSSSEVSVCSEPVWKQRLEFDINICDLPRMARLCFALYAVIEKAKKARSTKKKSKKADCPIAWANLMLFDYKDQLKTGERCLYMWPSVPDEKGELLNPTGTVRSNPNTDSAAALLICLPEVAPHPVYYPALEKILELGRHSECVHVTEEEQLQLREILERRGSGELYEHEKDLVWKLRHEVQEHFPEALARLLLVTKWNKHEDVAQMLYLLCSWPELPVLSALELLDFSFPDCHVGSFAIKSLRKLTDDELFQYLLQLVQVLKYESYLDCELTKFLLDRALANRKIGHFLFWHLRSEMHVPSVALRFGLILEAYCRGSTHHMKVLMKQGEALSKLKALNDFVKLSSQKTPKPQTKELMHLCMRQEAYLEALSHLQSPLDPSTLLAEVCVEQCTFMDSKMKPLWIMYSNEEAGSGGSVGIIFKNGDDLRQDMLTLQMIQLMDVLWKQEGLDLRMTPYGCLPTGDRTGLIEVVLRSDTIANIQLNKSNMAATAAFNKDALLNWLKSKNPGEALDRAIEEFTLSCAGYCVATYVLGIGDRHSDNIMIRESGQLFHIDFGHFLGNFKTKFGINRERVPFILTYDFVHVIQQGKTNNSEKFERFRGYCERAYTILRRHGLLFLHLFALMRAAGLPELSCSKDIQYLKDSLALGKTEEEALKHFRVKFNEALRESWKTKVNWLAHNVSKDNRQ
Chain of PI3Kδ (PI3Kd) (P27986 whole entry partner, canonical isoform): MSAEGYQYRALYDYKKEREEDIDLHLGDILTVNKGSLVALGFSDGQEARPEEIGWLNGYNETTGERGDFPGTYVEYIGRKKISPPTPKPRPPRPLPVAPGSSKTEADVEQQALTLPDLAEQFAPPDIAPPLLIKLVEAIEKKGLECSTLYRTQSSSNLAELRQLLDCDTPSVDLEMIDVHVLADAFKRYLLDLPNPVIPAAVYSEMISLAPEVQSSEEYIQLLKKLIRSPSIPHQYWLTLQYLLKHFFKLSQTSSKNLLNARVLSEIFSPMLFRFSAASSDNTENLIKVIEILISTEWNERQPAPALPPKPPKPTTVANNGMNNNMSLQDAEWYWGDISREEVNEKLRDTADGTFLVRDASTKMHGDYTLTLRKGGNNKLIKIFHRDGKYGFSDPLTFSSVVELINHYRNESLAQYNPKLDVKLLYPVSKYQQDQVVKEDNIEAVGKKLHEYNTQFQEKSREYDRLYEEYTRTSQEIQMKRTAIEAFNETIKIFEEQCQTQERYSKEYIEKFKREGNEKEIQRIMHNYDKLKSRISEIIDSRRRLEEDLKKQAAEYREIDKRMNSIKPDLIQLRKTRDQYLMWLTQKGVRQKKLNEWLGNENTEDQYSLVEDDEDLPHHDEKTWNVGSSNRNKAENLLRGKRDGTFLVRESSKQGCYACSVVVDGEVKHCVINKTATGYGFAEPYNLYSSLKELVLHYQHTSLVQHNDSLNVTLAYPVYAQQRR

Row | Compound | IC50
1 | Cc1ccn2nc([C@H](C)Nc3ncnc(N)c3-c3cccc(NS(=O)(=O)c4ccc(O)cc4)c3)n(-c3ccccc3)c(=O)c12 [Example 106, (S)—N-(3-(4-Amino-6-((1-(5-methyl-4-oxo-3-phenyl-3,4-dihydropyrrolo[2,1-f][1,2,4]triazin-2-yl)ethyl)amino)pyrimidin-5-yl)phenyl)-4-hydroxybenzenesulfonamide] | 0.4 nM
2 | Cc1ccn2nc([C@H](C)Nc3ncnc(N)c3-c3cncc(C(F)(F)F)c3)n(-c3ccccc3)c(=O)c12 [Example 114, (S)-2-(1-((6-Amino-5-(5-(trifluoromethyl)pyridin-3-yl)pyrimidin-4-yl)amino)ethyl)-5-methyl-3-phenylpyrrolo[2,1-f][1,2,4]triazin-4(3H)-one] | 0.5 nM
3 | Cc1ccn2nc([C@H](C)Nc3ncnc(N)c3-c3cnn(CCO)c3)n(-c3ccccc3)c(=O)c12 [Example 116, (S)-2-(1-((6-Amino-5-(1-(2-hydroxyethyl)-1H-pyrazol-4-yl)pyrimidin-4-yl)amino)ethyl)-5-methyl-3-phenylpyrrolo[2,1-f][1,2,4]triazin-4(3H)-one] | 1 nM
4 | Cc1ccn2nc([C@H](C)Nc3ncnc(N)c3C(=O)N3CC[C@H](O)C3)n(-c3ccccc3)c(=O)c12 [Example 119, 3-((S)-1-((6-Amino-5-((S)-3-hydroxypyrrolidine-1-carbonyl)pyrimidin-4-yl)amino)ethyl)-8-methyl-2-phenylpyrrolo[2,1-f][1,2,4]triazin-1 (2H)-one] | 156 nM
5 | Cc1ccn2nc([C@H](C)Nc3ncnc4[nH]cc(-c5cc(O)cc(NS(=O)(=O)c6ccc(O)cc6)c5)c34)n(-c3ccccc3)c(=O)c12 [Example 125, (S)-4-Hydroxy-N-(3-hydroxy-5-(4-((1-(5-methyl-4-oxo-3-phenyl-3,4-dihydropyrrolo[2,1-f][1,2,4]triazin-2-yl)ethyl)amino)-7H-pyrrolo[2,3-d]pyrimidin-5-yl)phenyl)benzenesulfonamide] | 0.7 nM
6 | Cc1ccn2nc([C@H](C)Nc3ncnc(N)c3-c3cncc(OC(F)F)c3)n(-c3ccccc3)c(=O)c12 [Example 127, (S)-2-(1-((6-Amino-5-(5-(difluoromethoxy)pyridin-3-yl)pyrimidin-4-yl)amino)ethyl)-5-methyl-3-phenylpyrrolo[2,1-f][1,2,4]triazin-4(3H)-one] | 0.4 nM
7 | CC(C)N1CCN(C(=O)CCCC#Cc2ccn3nc([C@H](C)Nc4ncnc(N)c4C#N)n(-c4ccccc4)c(=O)c23)CC1 [Example 128, (S)-4-Amino-6-((1-(5-(6-(4-isopropylpiperazin-1-yl)-6-oxohex-1-yn-1-yl)-4-oxo-3-phenyl-3,4-dihydropyrrolo[2,1-f][1,2,4]triazin-2-yl)ethyl)amino)pyrimidine-5-carbonitrile] | 4 nM
8 | Cc1ccn2nc([C@H](C)Nc3ncnc(N)c3-c3cc(O)cc(NS(=O)(=O)c4ccc(F)cc4F)c3)n(-c3ccccc3)c(=O)c12 [Example 130, (S)—N-(3-(4-Amino-6-((1-(5-methyl-4-oxo-3-phenyl-3,4-dihydropyrrolo[2,1-f][1,2,4]triazin-2-yl)ethyl)amino)pyrimidin-5-yl)-5-hydroxyphenyl)-2,4-difluorobenzenesulfonamide] | 1 nM
9 | Cc1ccn2nc([C@H](C)Nc3ncnc(N)c3-c3cncc(OCC(F)(F)F)c3)n(-c3ccccc3)c(=O)c12 [Example 132, (S)-2-(1-((6-Amino-5-(5-(2,2,2-trifluoroethoxyl)pyridin-3-yl)pyrimidin-4-yl)amino)ethyl)-5-methyl-3-phenylpyrrolo[2,1-f][1,2,4]triazin-4(3H)-one] | 2 nM
10 | COc1cc(-c2c(N)ncnc2N[C@@H](C)c2nn3ccc(C)c3c(=O)n2-c2ccccc2)cc(C(F)(F)F)n1 [Example 137, (S)-2-(1-((6-Amino-5-(2-methoxy-6-(trifluoromethyl)pyridin-4-yl)pyrimidin-4-yl)amino)ethyl)-5-methyl-3-phenylpyrrolo[2,1-f][1,2,4]triazin-4(3H)-one] | 4 nM
11 | COc1cc(C#N)cc(-c2c[nH]c3ncnc(N[C@@H](C)c4nn5ccc(C)c5c(=O)n4-c4ccccc4)c23)c1 [Example 147, (S)-3-Methoxy-5-(4-((1-(5-methyl-4-oxo-3-phenyl-3,4-dihydropyrrolo[2,1-f][1,2,4]triazin-2-yl)ethyl)amino)-7H-pyrrolo[2,3-d]pyrimidin-5-yl)benzonitrile] | 0.4 nM
12 | Cc1ccn2nc([C@H](C)Nc3ncnc4[nH]cc(-c5cc(O)cc(NS(=O)(=O)CCN(C)C)c5)c34)n(-c3ccccc3)c(=O)c12 [Example 150, (S)-2-(Dimethylamino)-N-(3-hydroxy-5-(4-((1-(5-methyl-4-oxo-3-phenyl-3,4-dihydropyrrolo[2,1-f][1,2,4]triazin-2-yl)ethyl)amino)-7H-pyrrolo[2,3-d]pyrimidin-5-yl)phenyl)ethanesulfonamide] | 1 nM
13 | Cc1ccn2nc([C@H](C)Nc3ncnc(N)c3-c3ccc(N4CCN(C(=O)OC(C)(C)C)CC4)cc3)n(-c3ccccc3)c(=O)c12 [Example 152, (S)-tert-Butyl 4-(4-(4-amino-6-((1-(5-methyl-4-oxo-3-phenyl-3,4-dihydropyrrolo[2,1-f][1,2,4]triazin-2-yl)ethyl)amino)pyrimidin-5-yl)phenyl)piperazine-1-carboxylate] | 100 nM
14 | Cc1ccn2nc([C@H](C)Nc3ncnc(N)c3-c3cc(O)cc(C(=O)N(C)C)c3)n(-c3ccccc3)c(=O)c12 [Example 156, (S)-3-(4-Amino-6-((1-(5-methyl-4-oxo-3-phenyl-3,4-dihydropyrrolo[2,1-f][1,2,4]triazin-2-yl)ethyl)amino)pyrimidin-5-yl)-5-hydroxy-N,N-dimethyl benzamide] | 1 nM
15 | COc1ncc(-c2c(N)ncnc2N[C@@H](C)c2nn3ccc(C)c3c(=O)n2-c2ccccc2)cc1NS(=O)(=O)c1ccc(O)cc1 [Example 157, (S)—N-(5-(4-Amino-6-((1-(5-methyl-4-oxo-3-phenyl-3,4-dihydropyrrolo[2,1-f][1,2,4]triazin-2-yl)ethyl)amino)pyrimidin-5-yl)-2-methoxypyridin-3-yl)-4-hydroxybenzenesulfonamide] | 0.2 nM

Continued, values first:

Row | IC50 | Compound
16 | 1 nM | Cc1ccn2nc([C@H](C)Nc3ncnc4[nH]cc(-c5cccc(Cl)c5O)c34)n(-c3ccccc3)c(=O)c12 [Example 104, (S)-2-(1-((5-(3-Chloro-2-hydroxyphenyl)-7H-pyrrolo[2,3-d]pyrimidin-4-yl)amino)ethyl)-5-methyl-3-phenylpyrrolo[2,1-f][1,2,4]triazin-4(3H)-one]
17 | 2 nM | Cc1ccn2nc([C@H](C)Nc3ncnc4[nH]cc(-c5cnn(CCN(C)C)c5)c34)n(-c3ccccc3)c(=O)c12 [Example 107, (S)-2-(1-((5-(1-(2-(Dimethylamino)ethyl)-1H-pyrazol-4-yl)-7H-pyrrolo[2,3-d]pyrimidin-4-yl)amino)ethyl)-5-methyl-3-phenylpyrrolo[2,1-f][1,2,4]triazin-4(3H)-one]
18 | 0.4 nM | CCNc1nnc(-c2c[nH]c3ncnc(N[C@@H](C)c4nn5ccc(C)c5c(=O)n4-c4ccccc4)c23)s1 [Example 120, (S)-2-(1-((5-(5-(Ethylamino)-1,3,4-thiadiazol-2-yl)-7H-pyrrolo[2,3-d]pyrimidin-4-yl)amino)ethyl)-5-methyl-3-phenylpyrrolo[2,1-f][1,2,4]triazin-4(3H)-one]
19 | 0.2 nM | Cc1ccn2nc([C@H](C)Nc3ncnc4[nH]cc(-c5cnc6[nH]ccc6c5)c34)n(-c3ccccc3)c(=O)c12 [Example 139, (S)-2-(1-((5-(1H-Pyrrolo[2,3-b]pyridin-5-yl)-7H-pyrrolo[2,3-d]pyrimidin-4-yl)amino)ethyl)-5-methyl-3-phenylpyrrolo[2,1-f][1,2,4]triazin-4(3H)-one]
20 | 0.2 nM | Cc1ccn2nc([C@H](C)Nc3ncnc4[nH]cc(-c5cnn(CCCO)c5)c34)n(-c3ccccc3)c(=O)c12 [Example 140, (S)-2-(1-((5-(1-(3-Hydroxypropyl)-1H-pyrazol-4-yl)-7H-pyrrolo[2,3-d]pyrimidin-4-yl)amino)ethyl)-5-methyl-3-phenylpyrrolo[2,1-f][1,2,4]triazin-4(3H)-one]
21 | 2 nM | Cc1ccn2nc([C@H](C)Nc3ncnc4[nH]cc(-c5ccn(CCN6CCOCC6)n5)c34)n(-c3ccccc3)c(=O)c12 [Example 144, (S)-5-Methyl-2-(1-((5-(1-(2-morpholinoethyl)-1H-pyrazol-3-yl)-7H-pyrrolo[2,3-d]pyrimidin-4-yl)amino)ethyl)-3-phenylpyrrolo[2,1-f][1,2,4]triazin-4(3H)-one]
22 | 0.2 nM | Cc1ccn2nc([C@H](C)Nc3ncnc4[nH]cc(-c5ccn(CC(F)(F)F)n5)c34)n(-c3ccccc3)c(=O)c12 [Example 145, (S)-5-Methyl-3-phenyl-2-(1-((5-(1-(2,2,2-trifluoroethyl)-1H-pyrazol-3-yl)-7H-pyrrolo[2,3-d]pyrimidin-4-yl)amino)ethyl)pyrrolo[2,1-f][1,2,4]triazin-4(3H)-one]
23 | 5 nM | Cc1ccn2nc([C@H](C)Nc3ncnc4[nH]cc(-c5cc(C(F)(F)F)nn5C)c34)n(-c3ccccc3)c(=O)c12 [Example 151, (S)-5-Methyl-2-(1-((5-(1-methyl-3-(trifluoromethyl)-1H-pyrazol-5-yl)-7H-pyrrolo[2,3-d]pyrimidin-4-yl)amino)ethyl)-3-phenylpyrrolo[2,1-f][1,2,4]triazin-4(3H)-one]
24 | 0.3 nM | Cc1ccn2nc([C@H](C)Nc3ncnc4[nH]cc(-c5ccn(CC(C)(C)CO)n5)c34)n(-c3ccccc3)c(=O)c12 [Example 155, (S)-2-(1-((5-(1-(3-Hydroxy-2,2-dimethylpropyl)-1H-pyrazol-3-yl)-7H-pyrrolo[2,3-d]pyrimidin-4-yl)amino)ethyl)-5-methyl-3-phenylpyrrolo[2,1-f][1,2,4]triazin-4(3H)-one]
25 | 4 nM | Cc1ccn2nc([C@H](C)Nc3ncnc4[nH]cc(-c5ccn(Cc6ccccc6O)n5)c34)n(-c3ccccc3)c(=O)c12 [Example 159, (S)-2-(1-((5-(1-(2-Hydroxybenzyl)-1H-pyrazol-3-yl)-7H-pyrrolo[2,3-d]pyrimidin-4-yl)amino)ethyl)-5-methyl-3-phenylpyrrolo[2,1-f][1,2,4]triazin-4(3H)-one]

Reference: patent publication US9388189B2, “Pyrrolotriazinone derivatives as PI3K inhibitors” (ALMIRALL, S.A., priority 2012, dated 2016)
